Source: patent US20230047825A1, “ANTIMICROBIAL PEPTIDES” (priority 2019, published 2023)
Values joined by “and” are separate entries in the source; they are usually repeats but may differ in a detail not shown here. Equal entries are not always repeated. Marks after values point to notes of the source that are not given here. Where a SMILES comes first, the peptide text is derived from it.

How the values were obtained:
[1] = Maximum Tolerated Dose (MTD) assessment, IV TID q8h: mortality, body weight, clinical observations; assay type: in vivo, mouse; conditions: 5 mg/kg (IV, TID, q8h)
[2] = as above; assay type: in vivo, mouse; set-up: key to Irritability / Hyperactivity / Inc. Startle / Inc. Touch / Dec. Startle Response / Dec. Touch Response / Inc. Exploration / Dec. Exploration / Pinna / Placing / Tremor / Dec. Spont. Activity / Straub Tail / Reactivity / Righting / Ataxia / Convulsion C.T.C-T / Low Limb Post / Abdominal Tone / Limb Tone / Grip Strength / Salivation F.V. / Lacrimation / Diarrhea / Body Temperature / Piloerection / Inc. Palpebral Size / Dec. Palpebral Size / Others / Death: “−” no effects; “±”: Slight to moderate effects; +: Severe effects; “C.”: Cyanosis; “D.”: Depth; E: Edema; conditions: for Body Weight, individual animals No. 1-4 / Mortality (total number of deaths/total number of animals): IV; for Body Temperature / Death / Dec. Palpebral Size / Diarrhea / Inc. Palpebral Size / Lacrimation / Others / Piloerection / Respiration / Salivation F.V. / Skin Color: AUTONOMIC; for Body Temperature / Death / Dec. Palpebral Size / Diarrhea / Inc. Palpebral Size / Lacrimation / Others / Piloerection / Respiration / Salivation F.V. / Skin Color / Dec. Exploration / Dec. Startle Response / Dec. Touch Response / Hyperactivity / Inc. Exploration / Inc. Startle / Inc. Touch / Irritability / Pinna / Placing / Ataxia / Convulsion C.T.C-T / Dec. Spont. Activity / Grip Strength / Limb Tone / Low Limb Post / Reactivity / Righting / Straub Tail / Tremor / Abdominal Tone: 5 minutes after 1st dosing, ICR mice, animals No. 1-4; for Dec. Exploration / Dec. Startle Response / Dec. Touch Response / Hyperactivity / Inc. Exploration / Inc. Startle / Inc. Touch / Irritability / Pinna / Placing: BEHAVIORAL; for Ataxia / Convulsion C.T.C-T / Dec. Spont. Activity / Grip Strength / Limb Tone / Low Limb Post / Reactivity / Righting / Straub Tail / Tremor / Abdominal Tone: NEUROLOGIC
Experimental: Tolerability analysis was conducted to determine the upper limit of D-PLEUROCIDIN-KR dosage. Test article solutions were intravenously (IV) administered to immunocompetent ICR mice with the dose schedule and concentrations indicated in the study design in the table below.
The animals were not infected. Doses were IV administered thrice (TID) with 8 h intervals (q8h) between doses. Animals were humanely euthanized after 3 days of the last treatment or at humane endpoints.
The MTD assessment was performed with immunocompetent female ICR mice, weighing 22 f 2 g. All animals were specific pathogen free.
Test articles were administered to animals by IV injections following the dose schedule, volumes, and concentrations indicated the Table above for MTD study. […] Animals were humanely euthanized if severe acute toxicity was observed during the experimental period.
The adverse effects were monitored at 5 minutes via cage-side observation after each subsequent IV administration on Day 1. Animals were observed again for mortality at 72 h after the last treatment. Body weights were recorded before each treatment and at 72 h after the last treatment. If overt toxicity was observed after the 1st or 2nd dose of a group, the 2nd or 3rd dose of that group was not administered.
Any adverse events observed were summarized. List of scores from observation assessments were also recorded.

[3] = 5 mg/kg, TID q8h, 24 h of 3rd dosing
[4] = 5 mg/kg, TID q8h, 48 h of 3rd dosing
[5] = 5 mg/kg, TID q8h, 72 h of 3rd dosing
[6] = 10 mg/kg, 24 h of 3rd dosing (2nd and 3rd doses not administered)
[7] = 10 mg/kg, 48 h of 3rd dosing (2nd and 3rd doses not administered)
[8] = 10 mg/kg, 72 h of 3rd dosing (2nd and 3rd doses not administered)

SMILES: CC(C)C[C@@H](NC(=O)[C@@H](Cc1ccc(O)cc1)NC(=O)[C@@H](Cc1c[nH]cn1)NC(=O)[C@H](NC(=O)[C@@H](CC(C)C)NC(=O)[C@@H](C)NC(=O)[C@@H](C)NC(=O)[C@@H](CCCNC(=N)N)NC(=O)CNC(=O)[C@H](NC(=O)[C@@H](Cc1c[nH]cn1)NC(=O)[C@@H](CCCNC(=N)N)NC(=O)CNC(=O)[C@H](NC(=O)[C@@H](Cc1c[nH]cn1)NC(=O)[C@@H](C)NC(=O)[C@@H](C)NC(=O)[C@@H](CCCNC(=N)N)NC(=O)[C@@H](CCCNC(=N)N)NC(=O)[C@@H](Cc1ccccc1)NC(=O)[C@@H](Cc1ccccc1)NC(=O)[C@@H](CO)NC(=O)CNC(=O)[C@@H](Cc1c[nH]c2ccccc12)NC(=O)CN)C(C)C)C(C)C)[C@H](C)O)C(N)=O [D-pleurocidin-KR] (HELM PEPTIDE1{G.[dW].G.[dS].[dF].[dF].[dR].[dR].[dA].[dA].[dH].[dV].G.[dR].[dH].[dV].G.[dR].[dA].[dA].[dL].[dT].[dH].[dY].[dL].[am]}$$$$V2.0; N-terminus assumed)
- tolerability [1]: tolerated
- adverse effects after the first dose administration ([2]; 5 mg/kg): severe cyanosis, labored respiration and edema
- Body Weight, individual animals No. 1-4 ([2]; 5 mg/kg, TID q8h, 1st dosing (recorded before treatment)): 25 g (3×) and 23 g
- Body Weight, individual animals No. 1-4 ([2]; 5 mg/kg, TID q8h, 2nd dosing): 25 g (3×) and 23 g
- Body Weight, individual animals No. 1-4 ([2]; 5 mg/kg, TID q8h, 3rd dosing): 25 g and 24 g (2×) and 23 g
- Body Weight, individual animals No. 1-4 [2, 3]: 26 g and 25 g (2×) and 23 g
- Mortality (total number of deaths/total number of animals) [2, 3]: 0/4
- Body Weight, individual animals No. 1-4 [2, 4]: 25 g (3×) and 23 g
- Mortality (total number of deaths/total number of animals) [2, 4]: 0/4
- Body Weight, individual animals No. 1-4 [2, 5]: 26 g (3×) and 24 g
- Mortality (total number of deaths/total number of animals) [2, 5]: 0/4
- Mortality (total number of deaths/total number of animals) ([2]; 5 mg/kg, TID, q8h, 5 min of 1st dosing): 0/4
- Mortality (total number of deaths/total number of animals) ([2]; 5 mg/kg, TID, q8h, 5 min of 2nd dosing): 0/4
- Mortality (total number of deaths/total number of animals) ([2]; 5 mg/kg, TID, q8h, 5 min of 3rd dosing): 0/4
- Mortality (total number of deaths/total number of animals) ([2]; 5 mg/kg, TID, q8h, 1 h of 1st dosing): 0/4
- Mortality (total number of deaths/total number of animals) ([2]; 5 mg/kg, TID, q8h, 1 h of 2nd dosing): 0/4
- Mortality (total number of deaths/total number of animals) ([2]; 5 mg/kg, TID, q8h, 1 h of 3rd dosing): 0/4
- mortality after the 1st dosing ([2]; 10 mg/kg): one of the four animals was found dead
- Body Weight, individual animals No. 1-4 ([2]; 10 mg/kg, 1st dosing (recorded before treatment)): 22 g (2×) and 23 g (2×)
- Body Weight, individual animals No. 1-4 ([2]; 10 mg/kg, 2nd dosing (2nd and 3rd doses not administered)): 21 g (2×) and dead and 23 g
- Body Weight, individual animals No. 1-4 ([2]; 10 mg/kg, 3rd dosing (2nd and 3rd doses not administered)): 21* g (2×) and 23* g
- Mortality (total number of deaths/total number of animals) ([2]; 10 mg/kg, 5 min of 1st dosing): 0/4
- Mortality (total number of deaths/total number of animals) ([2]; 10 mg/kg, 5 min of 2nd dosing (2nd and 3rd doses not administered)): 1/4
- Mortality (total number of deaths/total number of animals) ([2]; 10 mg/kg, 5 min of 3rd dosing (2nd and 3rd doses not administered)): 1/4
- Mortality (total number of deaths/total number of animals) ([2]; 10 mg/kg, 1 h of 1st dosing): 1/4
- Mortality (total number of deaths/total number of animals) ([2]; 10 mg/kg, 1 h of 2nd dosing (2nd and 3rd doses not administered)): 1/4
- Mortality (total number of deaths/total number of animals) ([2]; 10 mg/kg, 1 h of 3rd dosing (2nd and 3rd doses not administered)): 1/4
- Body Weight, individual animals No. 1-4 [2, 6]: 21* g (2×) and 24* g
- Mortality (total number of deaths/total number of animals) [2, 6]: 1/4
- Body Weight, individual animals No. 1-4 [2, 7]: 21* g (2×) and 24* g
- Mortality (total number of deaths/total number of animals) [2, 7]: 1/4
- Body Weight, individual animals No. 1-4 [2, 8]: 22* g (2×) and 23* g
- Mortality (total number of deaths/total number of animals) [2, 8]: 1/4
- tolerability i.v. in ICR mice ([2]; 15 mg/kg/24h i.v. (data not shown)): tolerated
- Body Weight, individual animals No. 1-4 ([2]; 30 mg/kg, 1st dosing (recorded before treatment)): 21 g and 22 g and 23 g and 24 g
- Body Weight, individual animals No. 1-4 ([2]; 30 mg/kg, 2nd dosing): dead
- Mortality (total number of deaths/total number of animals) ([2]; 30 mg/kg, 5 min of 1st dosing): All animals were found dead and 4/4
- Mortality (total number of deaths/total number of animals) ([2]; 30 mg/kg, 1 h of 1st dosing): All dead
- Mortality (total number of deaths/total number of animals) ([2]; 30 mg/kg, 1 h of 3rd dosing): All dead
- tolerability ([2]; 10 and 30 mg/kg dosages): not tolerated
- Body Temperature ([2]; 5 mg/kg IV): −
- Death ([2]; 5 mg/kg IV): −
- Dec. Palpebral Size ([2]; 5 mg/kg IV): −
- Diarrhea ([2]; 5 mg/kg IV): −
- Inc. Palpebral Size ([2]; 5 mg/kg IV): −
- Lacrimation ([2]; 5 mg/kg IV): −
- Others ([2]; 5 mg/kg IV): E
- Piloerection ([2]; 5 mg/kg IV): −
- Respiration ([2]; 5 mg/kg IV): D±
- Salivation F.V. ([2]; 5 mg/kg IV): −
- Skin Color ([2]; 5 mg/kg IV): C±
- Body Temperature ([2]; 10 mg/kg IV): −
- Death ([2]; 10 mg/kg IV): −
- Dec. Palpebral Size ([2]; 10 mg/kg IV): −
- Diarrhea ([2]; 10 mg/kg IV): −
- Inc. Palpebral Size ([2]; 10 mg/kg IV): −
- Lacrimation ([2]; 10 mg/kg IV): −
- Others ([2]; 10 mg/kg IV): E
- Piloerection ([2]; 10 mg/kg IV): −
- Respiration ([2]; 10 mg/kg IV): D±
- Salivation F.V. ([2]; 10 mg/kg IV): −
- Skin Color ([2]; 10 mg/kg IV): C±
- Death ([2]; 30 mg/kg IV): +
- Dec. Exploration ([2]; 5 mg/kg IV): −
- Dec. Startle Response ([2]; 5 mg/kg IV): −
- Dec. Touch Response ([2]; 5 mg/kg IV): −
- Hyperactivity ([2]; 5 mg/kg IV): −
- Inc. Exploration ([2]; 5 mg/kg IV): −
- Inc. Startle ([2]; 5 mg/kg IV): −
- Inc. Touch ([2]; 5 mg/kg IV): −
- Irritability ([2]; 5 mg/kg IV): −
- Pinna ([2]; 5 mg/kg IV): −
- Placing ([2]; 5 mg/kg IV): −
- Hyperactivity ([2]; 10 mg/kg IV): −
- Inc. Exploration ([2]; 10 mg/kg IV): −
- Inc. Startle ([2]; 10 mg/kg IV): −
- Inc. Touch ([2]; 10 mg/kg IV): −
- Irritability ([2]; 10 mg/kg IV): −
- Dec. Exploration ([2]; 10 mg/kg IV, 10 mg/kg): ± and +
- Dec. Startle Response ([2]; 10 mg/kg IV, 10 mg/kg): − and ±
- Dec. Touch Response ([2]; 10 mg/kg IV, 10 mg/kg): ± and +
- Pinna ([2]; 10 mg/kg IV, 10 mg/kg): ± and +
- Placing ([2]; 10 mg/kg IV, 10 mg/kg): ± and −
- Ataxia ([2]; 5 mg/kg IV): −
- Convulsion C.T.C-T ([2]; 5 mg/kg IV): −
- Dec. Spont. Activity ([2]; 5 mg/kg IV): −
- Grip Strength ([2]; 5 mg/kg IV): −
- Limb Tone ([2]; 5 mg/kg IV): −
- Low Limb Post ([2]; 5 mg/kg IV): −
- Reactivity ([2]; 5 mg/kg IV): −
- Righting ([2]; 5 mg/kg IV): −
- Straub Tail ([2]; 5 mg/kg IV): −
- Tremor ([2]; 5 mg/kg IV): −
- Abdominal Tone ([2]; 5 mg/kg IV, 5 mg/kg): − and ±
- Ataxia ([2]; 10 mg/kg IV): ±
- Convulsion C.T.C-T ([2]; 10 mg/kg IV): −
- Dec. Spont. Activity ([2]; 10 mg/kg IV): ±
- Limb Tone ([2]; 10 mg/kg IV): +
- Reactivity ([2]; 10 mg/kg IV): −
- Righting ([2]; 10 mg/kg IV): −
- Straub Tail ([2]; 10 mg/kg IV): −
- Tremor ([2]; 10 mg/kg IV): −
- Abdominal Tone ([2]; 10 mg/kg IV, 10 mg/kg): − and + and ±
- Grip Strength ([2]; 10 mg/kg IV, 10 mg/kg): ± and −
- Low Limb Post ([2]; 10 mg/kg IV, 10 mg/kg): ± and −
- in vivo therapeutic index ([2]; before dose optimisation, tolerated dose vs effective dose): approximately 20 fold
